Data on 21 compounds can be found in patent US7169785B2, “Methods and compositions of novel triazine compounds” (Reddy US Therapeutics, Inc., priority 2001, dated 2007).

Read-outs that look alike come from different tables or passages of the source.

Assay [1] deals with Human aortic smooth muscle cells. The assay can be described thus: Smooth muscle cell proliferation assay (anti-proliferation assay, perlecan). Type of assay: cell-based.
In assay [2] the test system is IL-6. As to the kind of experiment: AGE (G-HSA)-induced inflammatory response determined by IL-6 ELISA in HAEC. Type of assay: cell-based, human. The settings on record: Homo sapiens; for activity at 10 µM: 24 h, Compds tested @ 10 uM, IL6, read-out: % IL6 production compare to AGE stimulation of IL6 (100%); for IC50: IL6, unit inferred, read-out: IC50 (AGE stimulation of IL6). Here is the method:
Human aortic endothelial cells (HAEC, Clonetics) were cultured according to manufacturer in growth medium (Clonetics): basal medium containing human epidermal growth factor, hydrocortisone, vascular endothelial growth factor, heparin binding growth factor-B, long R3-insulin-like growth factor-1, ascorbic acid, gentamicin/amphotericin and 5% FBS. These cell were allowed to reach at least 90% confluency before subjected to experimental treatments. […] Tumor necrosis factor α was from R&D Systems.
All treatments, compound-added and controls were carried out in serum free media containing 0.2% albumin. Media from all conditions were collected and used for IL-6 ELISA.
(§1) IL-6 ELISA was carried out using human IL-6 DuoSet ELISA development kit as described by manufacturer (R&D Systems). Mouse anti-human Il-6 was used as the capture antibody (2 ug/ml) and biotinylated goat anti-human IL-6 (200 ng/ml) was used as the detection antibody. Culture media were incubated with capture antibody (in 96 well) for 2 h at room temperature. Wells were washed three times with wash buffer (0.05% tween-20 in phosphate buffered saline (PBS) pH 7.4) followed by incubation with detection antibody for 2 h at room temperature. Following three washes wells were incubated with Streptavidin-HRP for 20 min. Color development was read at 450 nm in a Microplate reader.
(An ELISA detects its analyte on a solid surface through an enzyme-linked reagent.)

The test system of assay [3] is IL-6. The assay can be described thus: TNF-α-induced IL-6 production determined by IL-6 ELISA in HAEC. Type of assay: cell-based, human. The note with it: HAEC; for activity at 10 µM / IC50: Homo sapiens, IL6; for activity at 10 µM: 24 h, Compds tested @ 10 uM, read-out: % IL6 production compare to TNF stimulation of IL6 (100%); for IC50: unit inferred, read-out: IC50 (TNF stimulation of IL6); for Inhibition of TNF-induced IL6 production: class of % of control IL6 production. As for the experimental part:
Human aortic endothelial cells (HAEC, Clonetics) were cultured according to manufacturer in growth medium (Clonetics): basal medium containing human epidermal growth factor, hydrocortisone, vascular endothelial growth factor, heparin binding growth factor-B, long R3-insulin-like growth factor-1, ascorbic acid, gentamicin/amphotericin and 5% FBS. These cell were allowed to reach at least 90% confluency before subjected to experimental treatments. Glycated human serum albumin (G-HSA) was from US Biologicals. Tumor necrosis factor α was from R&D Systems.
[…] All treatments, compound-added and controls were carried out in serum free media containing 0.2% albumin. Media from all conditions were collected and used for IL-6 ELISA.
as §1

[4] abbreviates: Homo sapiens, anti-proliferation assay (perlecan), read-out: Activity (note 1).
[5] abbreviates: Homo sapiens, anti-proliferation assay (perlecan), read-out: Avg IC-50.
The mark [6] stands for this setting: Homo sapiens, read-out: Activity (note 1).
[7] abbreviates: Homo sapiens, read-out: Avg IC-50.

As to `COc1ccc(Nc2nc(NCC3CCCCC3)nc(N(C)C3CCN(C)CC3)n2)cc1Cl` [Compound 103, N-(3-Chloro-4-methoxy-phenyl)-N′-cyclohexylmethyl-N″-methyl-N″-(1-methyl-piperidin-4-yl)-[1,3,5]triazine-2,4,6-triamine], the IC50 in assay [1] (setting [4]) was above 7 µM; in assay [1] (setting [5]) it was around 7 µM.

Consider `CCCC(CCC)Nc1nc(Nc2ccc(OC)c(Cl)c2)nc(N(C)C2CCN(C)CC2)n1` [Compound 105, N-(3-Chloro-4-methoxy-phenyl)-N′-methyl-N′-(1-methyl-piperidin-4-yl)-N″-(1-propyl-butyl)-[1,3,5]triazine-2,4,6-triamine], for which the results for the IC50 in assay [1] (setting [4]) and in assay [1] (setting [5]) were above 7 µM and around 7 µM, respectively.

`CCN(CC)c1ccc(Nc2nc(NCC3CCCN3CC)nc(NC3CCCCCC3)n2)cc1Cl` (centres unmarked) [Compound 163]: the IC50 was above 7 µM in assay [1] (anti-proliferation assay (perlecan), read-out: Activity (note 1)) and 8 to 10 µM in assay [1] (anti-proliferation assay (perlecan), read-out: Avg IC-50).

As to `CCN1CCCC1CNc1nc(Nc2ccc(OC)c(F)c2)nc(N2CCN(c3ccccn3)CC2)n1` (centres unmarked) [Compound 73, N^2-[(1-ethyl-2-pyrrolidinyl)methyl]-N^4-(3-fluoro-4-methoxyphenyl)-N^6-[4-(2-pyridinyl)-1-piperazinyl]-1,3,5-triazine-2,4-diamine], in the assay on IL-6 [2], the activity at 10 µM turned out to be 20% and the IC50 stood at 7.5 µM. Also, in the assay with IL-6 [3], the activity at 10 µM is 1% and the IC50 stood at 8.7 µM.

On to `CCN1CCCC1CNc1nc(NCc2ccccc2)nc(Nc2ccc(OC)c(F)c2)n1` (centres unmarked) [Compound 53, N^2-benzyl-N^4-[(1-ethyl-2-pyrrolidinyl)methyl]-N^6-(3-fluoro-4-methoxyphenyl)-1,3,5-triazine-2,4,6-triamine], for which the activity at 10 µM with IL-6 [2] stood at 32%; in the assay on IL-6 [3] it was 1%.

Turning to `CCN1CCCC1CNc1nc(Nc2cccc(NC(C)=O)c2)nc(NC2CCCCCC2)n1` (centres unmarked) [Compound 30, N-{3-[(4-(cycloheptylamino)-6-{[(1-ethyl-2-pyrrolidinyl)methyl]amino}-1,3,5-triazin-2-yl)-amino]phenyl}acetamide], the results for the activity at 10 µM in the assay on IL-6 [2] and in the assay on IL-6 [3] were 17% and 9%, respectively.

For the compound `CCN1CCCC1CNc1nc(Nc2ccc(OC)c(F)c2)nc(N2CCCC2)n1` (centres unmarked) [Compound 57, N^2-[(1-ethyl-2-pyrrolidinyl)methyl]-N^4-(3-fluoro-4-methoxyphenyl)-6-(1-pyrrolidinyl)-1,3,5-triazine-2,4-diamine], the activity at 10 µM stood at 25% in the assay on IL-6 [2] and 1% in the assay with IL-6 [3].

As to `CCN1CCCC1CNc1nc(NCCCn2ccnc2)nc(Nc2ccc(OC)c(F)c2)n1` (centres unmarked) [Compound 75, N^2-[(1-ethyl-2-pyrrolidinyl)methyl]-N^4-(3-fluoro-4-methoxyphenyl)-N^6-[3-(1H-imidazol-1-yl)propyl]-1,3,5-triazine-2,4,6-triamine], the figures for the activity at 10 µM in the assay on IL-6 [2] and in the assay on IL-6 [3] were 46% and 43%, respectively.

For `CCN1CCCC1CNc1nc(Nc2ccccn2)nc(NC2CCCCCC2)n1` (centres unmarked) [Compound 34, N^2-cycloheptyl-N^4-[(1-ethyl-2-pyrrolidinyl)methyl]-N^6-(2-pyridinyl)-1,3,5-triazine-2,4,6-triamine], the activity at 10 µM in the assay with IL-6 [2] was 1%; in the assay with IL-6 [3], 3%.

Turning to `CCN1CCCC1CNc1nc(NCc2ccco2)nc(Nc2ccc(OC)c(F)c2)n1` (centres unmarked) [Compound 66, N^2-[(1-ethyl-2-pyrrolidinyl)methyl]-N^4-(3-fluoro-4-methoxyphenyl)-N^6-(2-furylmethyl)-1,3,5-triazine-2,4,6-triamine], the results for the activity at 10 µM with IL-6 [2] and in the assay on IL-6 [3] were 23% and 1%, respectively.

With `COc1ccc(Nc2nc(Cl)nc(NC3CCCCCC3)n2)cc1F` [Compound 127, 6-Chloro-N-cycloheheptyl-N′-(3-fluoro-4-methoxy-phenyl)-[1,3,5]triazine-2,4-diamine], the IC50 in assay [1] (setting [4]) is above 7 µM; in assay [1] (setting [5]), 10 µM. Also, in the assay with IL-6 [3], the activity at 10 µM worked out at 48%.

Consider `COc1ccc(Nc2nc(NCCCN3CCCC3=O)nc(NC3CCCCCC3)n2)cc1F` [Compound 99, 1-[3-({4-(cycloheptylamino)-6-[(3-fluoro-4-methoxyphenyl)amino]-1,3,5-triazin-2-yl}amino)propyl]-2-pyrrolidinone], for which, in the assay with IL-6 [2], the activity at 10 µM was 8% and the IC50 was 6.04 µM. Moreover, in the assay with IL-6 [3], the activity at 10 µM came to 39%.

As to `CCN1CCCC1CNc1nc(Nc2ccc(OC)c(F)c2)nc(N2CCN(Cc3ccc4c(c3)OCO4)CC2)n1` (centres unmarked) [Compound 72, N^6-[4-(1,3-benzodioxol-5-ylmethyl)-1-piperazinyl]-N^2-[(1-ethyl-2-pyrrolidinyl)methyl]-N^4-(3-fluoro-4-methoxyphenyl)-1,3,5-triazine-2,4-diamine], the values for the activity at 10 µM in the assay on IL-6 [2] and in the assay on IL-6 [3] were 31% and 5%, respectively.

As for `COc1ccc(Nc2nc(NC3CCCCCC3)nc(N(C)C3CCN(C)CC3)n2)cc1Cl` [Compound 137, N-(3-Chloro-4-methoxy-phenyl)-N′-cycloheptyl-N″-methyl-N″-(1-methyl-piperidin-4-yl)-[1,3,5]triazine-2,4,6-triamine], the IC50 in assay [1] (setting [4]) lay in the range of 3 to 7 µM; in assay [1] (setting [5]) it was 4 to 5 µM.

On to `CCN1CCC[C@@H]1CNc1nc(Nc2ccc(OC)c(F)c2)nc(NC2CCCCCC2)n1` [Compound 140, N^2-cycloheptyl-N^4-((R)-1-ethyl-pyrrolidin-2-ylmethyl)-N^6-(3-fluoro-4-methoxyphenyl)-1,3,5-triazine-2,4,6-triamine], for which the IC50 lay within 3 to 7 µM in assay [1] (setting [6]) and 4 to 5 µM in assay [1] (setting [7]). Besides, the “Inhibition of TNF-induced IL6 production” value with IL-6 [3] is “++++ (between 0 and about 25% of IL6 production compared to cells that did not receive compound (or per cent of control IL6 production))”. In the assay on IL-6 [3], the activity at 10 µM was determined as 12.6%.

As to `CCN1CCCC1CNc1nc(Nc2ccc(N3CCOCC3)cc2)nc(NC2CCCCCC2)n1` (centres unmarked) [Compound 27, N^2-cycloheptyl-N^4-[(1-ethyl-2-pyrrolidinyl)methyl]-N^6-[4-(4-morpholinyl)phenyl]-1,3,5-triazine-2,4,6-triamine], the activity at 10 µM came out at 1% in the assay on IL-6 [2] and 3% in the assay on IL-6 [3].

`CN1CCC(N(C)c2nc(Nc3ccc4ccccc4c3)nc(NC3CCCCCC3)n2)CC1` [N^2-cycloheptyl-N^4-methyl-N^4-(1-methyl-piperidin-4-yl)-N^6-naphthalen-2-yl-1,3,5-triazine-2,4,6-triamine]: the “activity in anti-proliferation assay (Perlecan)” value in assay [1] (same activity scale used in Table 3, in words) is “high activity”.

Consider `CCN1CCC[C@H]1CNc1nc(Nc2ccc(OC)c(F)c2)nc(NC2CCCCCC2)n1` [Compound 139, N^2-cycloheptyl-N^4-((S)-1-ethyl-pyrrolidin-2-ylmethyl)-N^6-(3-fluoro-4-methoxyphenyl)-1,3,5-triazine-2,4,6-triamine], for which the results for the IC50 in assay [1] (setting [6]) and in assay [1] (setting [7]) were 3 to 7 µM and 4 to 5 µM, respectively. Also, the “Inhibition of TNF-induced IL6 production” value in the assay with IL-6 [3] is “++++ (between 0 and about 25% of IL6 production compared to cells that did not receive compound (or per cent of control IL6 production))”. In the assay with IL-6 [3], the activity at 10 µM worked out at 16.1%.

With `CCN1CCCC1CNc1nc(NCC2CCCCC2)nc(Nc2ccc(OC)c(F)c2)n1` (centres unmarked) [Compound 65, N^2-(cyclohexylmethyl)-N^4-[(1-ethyl-2-pyrrolidinyl)methyl]-N^6-(3-fluoro-4-methoxyphenyl)-1,3,5-triazine-2,4,6-triamine], in the assay on IL-6 [2], the activity at 10 µM worked out at 45% and the IC50 worked out at 3.24 µM. Also, in the assay on IL-6 [3], the activity at 10 µM was determined as 1% and the IC50 was 6.7 µM.

On to `COc1ccc(Nc2nc(NC3CCCCCC3)nc(N(C)C3CCN(C)CC3)n2)cc1Br` [Compound 170], for which the figures for the IC50 in assay [1] (setting [4]) and in assay [1] (setting [5]) were above 7 µM and 8 to 9 µM, respectively.

`CCN1CCCC1CNc1nc(Nc2ccc(OC)c(F)c2)nc(NC2CCCCCC2)n1` (centres unmarked) [Compound 95, N^2-cycloheptyl-N^4-[(1-ethyl-2-pyrrolidinyl)methyl]-N^6-(3-fluoro-4-methoxyphenyl)-1,3,5-triazine-2,4,6-triamine]: the IC50 is above 7 µM in assay [1] (setting [4]), 7.3 µM in assay [1] (setting [5]), 6.6 µM in the assay on IL-6 [2] and 2.8 µM with IL-6 [3]. The activity at 10 µM in the assay with IL-6 [2] was 1%; in the assay on IL-6 [3], 5%. Also, the “Inhibition of TNF-induced IL6 production” value in the assay on IL-6 [3] was “++++ (between 0 and about 25% of IL6 production compared to cells that did not receive compound (or per cent of control IL6 production))”.
